Measured values taken from paper PMC3413214, “Structural and biochemical characterization of a trapped coenzyme A adduct of Caenorhabditis elegans glucosamine-6-phosphate N-acetyltransferase 1” (Acta Crystallographica Section D: Biological Crystallography, 2012).

What was measured:
[1] = target: T1, CeGNA1 (Caenorhabditis elegans, UniProt Q17427); assay: X-ray crystal structure, […] Å; MALDI-TOF mass spectrometry; type: binding; conditions: covalent; disulfide to Cys141, inactive enzyme, reversed by DTT; nonreducing crystallisation, pH 8.5
T1 construct: gene gna-1; full-length, 165 residues; GST fusion from pGEX-6P-1 in E. coli BL21(DE3) pLysS, GST cut with PreScission protease; homodimer; 18 876 Da by MALDI
T1 sequence (Q17427 whole entry, the tested form may be a part): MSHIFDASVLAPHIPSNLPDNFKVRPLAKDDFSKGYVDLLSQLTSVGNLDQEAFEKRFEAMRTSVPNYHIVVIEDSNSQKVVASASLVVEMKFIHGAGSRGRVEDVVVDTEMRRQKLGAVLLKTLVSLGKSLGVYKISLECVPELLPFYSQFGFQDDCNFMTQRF

[2] = target: T1, CeGNA1; assay: X-ray crystal structure, […] Å; type: binding; conditions: ternary product complex with CoA; acceptor (GlcN-6P) subsite at dimer interface; crystals at pH 8.5

Row | SMILES | X-ray crystal structure, 1.55 Å; MALDI-TOF mass spectrometry [1] | X-ray crystal structure, 1.75 Å [2]
1 | CC(C)(COP(=O)(O)OP(=O)(O)OC[C@H]1O[C@@H](n2cnc3c(N)ncnc32)[C@H](O)[C@@H]1OP(=O)(O)O)[C@@H](O)C(=O)NCCC(=O)NCCS [CoA] | the CoA thiol has formed a covalent complex with the enzyme through a disulfide | 
2 | CC(=O)N[C@H]1C(O)O[C@H](COP(=O)(O)O)[C@@H](O)[C@@H]1O (some centres unmarked) [GlcNAc-6P] |  | occupied by the products CoA and GlcNAc-6-phosphate, both with well defined electron density
